Experiment [1] deals with T1, ENPP1 (Homo sapiens, UniProt P22413).
T1 sequence (P22413 1-925): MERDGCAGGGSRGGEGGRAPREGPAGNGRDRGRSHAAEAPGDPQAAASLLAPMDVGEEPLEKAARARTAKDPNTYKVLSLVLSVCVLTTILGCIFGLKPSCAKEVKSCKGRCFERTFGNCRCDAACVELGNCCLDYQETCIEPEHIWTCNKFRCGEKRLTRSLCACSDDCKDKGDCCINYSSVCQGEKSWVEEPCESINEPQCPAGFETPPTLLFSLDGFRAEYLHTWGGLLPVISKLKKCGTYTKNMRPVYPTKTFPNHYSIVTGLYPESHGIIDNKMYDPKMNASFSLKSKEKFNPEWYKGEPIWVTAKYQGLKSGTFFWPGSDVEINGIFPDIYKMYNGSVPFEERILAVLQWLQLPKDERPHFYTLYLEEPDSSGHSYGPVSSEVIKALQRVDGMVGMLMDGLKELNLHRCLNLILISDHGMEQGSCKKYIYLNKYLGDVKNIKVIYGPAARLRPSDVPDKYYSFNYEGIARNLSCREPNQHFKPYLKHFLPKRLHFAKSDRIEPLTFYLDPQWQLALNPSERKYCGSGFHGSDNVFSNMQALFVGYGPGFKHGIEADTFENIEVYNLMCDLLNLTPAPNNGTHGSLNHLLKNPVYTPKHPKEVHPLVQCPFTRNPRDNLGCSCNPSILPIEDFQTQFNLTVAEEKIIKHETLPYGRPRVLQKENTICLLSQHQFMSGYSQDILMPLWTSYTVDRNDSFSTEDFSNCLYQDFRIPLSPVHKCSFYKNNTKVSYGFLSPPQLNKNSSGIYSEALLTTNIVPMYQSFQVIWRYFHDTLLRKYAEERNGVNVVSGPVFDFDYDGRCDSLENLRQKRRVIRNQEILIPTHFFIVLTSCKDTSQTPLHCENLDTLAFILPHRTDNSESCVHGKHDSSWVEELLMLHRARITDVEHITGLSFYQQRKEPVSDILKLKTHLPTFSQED
The experiment in a line: Measurement of pNP-TMP hydrolysis by ENPP1. It is filed as biochemical. The note with it: pNP-TMP substrate 500 μM, Km 232 μM; Ki from IC50 by Cheng-Prusoff. On the procedure: Measurement of pNP-TMP hydrolysis by ENPP1
p-Nitrophenyl thymidine 5′-monophosphate (pNP-TMP) is a synthesized substrate for ENPP1. The ENPP1 enzyme activity assay with pNP-TMP substrate was conducted as follows:
First, in a 60 μl reaction, 7.5 ng purified ENPP1 was mixed with 1.2 μl compounds of Formula (I) (test compound) ranging from 13.7 nM to 10 μM. Incubation of ENPP1 with compounds was set at 25° C. for 10 min. Reactions with DMSO only (with ENPP1 but no compound) gave the fastest reaction (MAX Activity). For each compound dilution, wells with assay buffer (50 mM Tris -HCl, pH8.8, 250 mM NaCl, 0.1 mg/ml BSA) and test compounds but no ENPP1 were included as controls for the subtraction of test compound derived absorbance at 405 nm.
Second, after 10 minutes incubation of ENPP1 and test compound, the assay was initiated by transferring 50 μl of the above mentioned ENPP1/test compound reaction into 50 μl of 1 mM pNP-TMP in assay buffer results in a 100 μl total reaction in non-binding surface clear bottom 96 well plates. Absorbance at 405 nm was recorded immediately in kinetic mode by PerkinElmer 2300 Enspire multimode plate reader.
For each inhibitor, the specific ENPP1 activity was calculated using the following equation: ENPP1 activity (pmol/min/μg)=Adjusted Vmax (OD405 nm/min) X conversion factor (pmol/OD405 nm)/amount of enzyme (μg)
Adjusted Vmax=V0X (Km+(S))/(S). In this assay, Km=232 μM, (S)=500 μM. Adjusted Vmax=1.464 X V0.
V0=(OD405 nm with ENPP1-OD405 nm ENPP1 blank)/minutes. OD405 nm was plotted, with blank subtracted, against time (minutes), the initial linear rate is V0.
The conversion factor (pmol/OD405 nm), was determined by plotting the amount of standard, 4-Nitrophenol (Sigma -Aldrich, Catalog #241326), against absorbance at 405 nm. The slope is the conversion factor. The percent ENPP1 activity for each sample was calculated using the following equation: […]
To determine the IC50 for each compound, compound concentration values and percent enzyme activity values were inserted into GraphPad Prism (GraphPad Prism version 9.0 for Windows, GraphPad Software, La Jolla California USA, www.graphpad.com), and Prism's Transform analysis was used to convert the x-axis values (compound concentration) to logarithms. A sigmoidal variable slope nonlinear regression analysis was performed using the following equation: Y=Bottom+ (Top-Bottom)/(1+10^((Log IC50″X) *HillSlope)).
Ki values for each compound were calculated from the observed IC50 from GraphPad analysis using the Cheng-Prusoff equation: Ki=IC50/(1+(S)/KM). (S) here is 500 μM and KM is determined to be 232 μM.

The target of experiment [2] is T1, ENPP1. Nature of the experiment: Measurement of 2′3′-cGAMP hydrolysis by ENPP1 (AMP-Glo). It is filed as biochemical. To be noted: 2′3′-cGAMP substrate 100 μM, KM 32 μM; Ki from IC50 by Cheng-Prusoff. How it is done: Measurement of 2′3′-cGAMP hydrolysis by ENPP1
The AMP-Glo assay kit from Promega (catalog number V5012) was used for measurement of 5′-AMP production.
First, an ENPP1 and test compound incubation was set up in assay buffer (50 mM Tris -HCl, pH8.8, 250 mM NaCl, 0.1 mg/ml BSA) with following conditions: ENPP1 concentration: 1.25 nM; test compound concentration ranging from 137 pM to 100 nM. The incubation was carried out at 25° C. for 10 min.
Second, after the 10-minute incubation of ENPP1 and test compound, prepare on a separate plate, 15 μl of the substrate 2′3′-cGAMP at 200 μM in assay buffer. Then, 15 μl of the ENPP1/Compound incubation was transferred to the 200 μM 2′3′-cGAMP solution to initiate the reaction. The 30 μl mixture was incubated for 30 min at 25° C. In all these assays a DMSO control without compound was included which gave the maximum 5′-AMP production (MAX RLU). After 30 min the reaction was stopped by heating at 90° C. for 3 min.
Third, the Promega AMP-Glo kit was used to detect 5′-AMP production as a measurement of ENPP1 enzyme activity. Briefly, 10 μl of the above mentioned 30 μl total reaction per sample was transferred into 384 well white solid assay plate for measurement of 5′-AMP production. For each well, 10 μl of AMP-Glo Reagent I was added, mixed well, and incubated for 1 hour at 25° C. At this time AMP detection solution was prepared and 20 μl was added per well, and the resulting solution was incubated for 1 hr at 25° C. Duplicates were run for each inhibitor concentration. Luminescence signal (relative luminescence units, RLU) was recorded using a PerkinElmer 2300 Enspire multimode plate reader.
The % inhibition was calculated using the following equation: % inhibition=(MAX RLU-sample RLU)/MAX RLU X 100%.
IC50 values of compounds were determined by loading compound concentration data and percent inhibition values into GraphPad Prism (GraphPad Prism version 7.0 for
Windows, GraphPad Software, La Jolla California USA, www.graphpad.com) and conducted a Sigmoidal variable slope nonlinear regression fitting.
Ki values for each compound were calculated from the observed IC50 from GraphPad analysis using the Cheng-Prusoff equation: Ki=IC50/(1+ (S)/KM). (S) here is 100μ M and KM is 32 μm.

The next experiment concerns HGS tumor model. The experiment in a line: Anti-tumor activity in HGS tumor model. It is filed as in vivo. To be noted: animals treated with 20/kg of compound, day 42 after inoculation.
From the text: […]

Broadly, the Ki is a measure of affinity in units of concentration, obtained from inhibition or displacement. A high value points to lower affinity.

In the case of `COc1nccc2c(OCc3cc(F)cc([S@@](C)(=N)=O)c3)ccnc12` (single isomer, unassigned) [Example 71], the results for the Ki at ENPP1 [1] and at ENPP1 [2] were below 10 nM and below 1 nM, respectively.

Regarding `C[S@](=N)(=O)c1cccc(COc2ccnc3c(OCF)nccc23)c1` (single isomer, unassigned) [Example 79], the Ki on ENPP1 [1] was below 10 nM; at ENPP1 [2], below 1 nM.

Take `C=CC(=O)N1CCN(CCCn2c(=O)c(-c3c(Cl)c(OC)cc(OC)c3Cl)cc3cnc(NC)nc32)CC1` [8-(3-(4-acryloylpiperazin-1-yl)propyl)-6-(2,6-dichloro-3,5-dimethoxyphenyl)-2-(methylamino)pyrido (2,3-d)pyrimidin-7 (8H)-one]: the tumor size with HGS tumor model was found to be 55 mm3.

For the compound `CS(=N)(=O)c1cccc(COc2ccnc3cnccc23)c1` (centres unmarked) [Example 9], the Ki was below 10 nM on ENPP1 [1] and 1 to 5 nM at ENPP1 [2].

For `COc1nccc2c(OCc3cccc([S@@](=N)(=O)C4CC4)c3)ccnc12` [Example 17b, (S)-Cyclopropyl(imino)(3-(((8-methoxy-1,7-naphthyridin-4-yl)oxy)methyl)phenyl)-lamba6-sulfanone], the Ki on ENPP1 [1] was below 10 nM; on ENPP1 [2] it was below 1 nM.

`N=S(=O)(c1cc(F)cc(COc2ccnc3c(OCF)nccc23)c1)C1CC1` (centres unmarked) [Example 69, cyclopropyl(3-fluoro-5-(((8-(fluoromethoxy)-1,7-naphthyridin-4-yl)oxy)-methyl)phenyl) (imino)-lambda6-sulfanone]: the Ki at ENPP1 [1] was below 10 nM; at ENPP1 [2], below 1 nM.

For the origin of these results see US20250320204A1 (RIBOSCIENCE LLC, priority 2023, published 2025).
